Laboratory results published in US4129648A, “Method for reducing endogenous prostaglandin synthesis” (priority 1977, dated 1978).

System: prostaglandin synthetase of bovine seminal vesicles
Assay: Inhibition of conversion of arachidonic acid into PGE2 and PGF2α by BSV prostaglandin synthetase, cascade bioassay
Format: biochemical
Protocol: The high molecular weight mammalian blood plasma or serum extract of the present invention was tested for PG synthesis-inhibiting properties by determining the ability of the extract to inhibit the conversion of arachidonic acid into PGE2 and PGF2α by PG synthetase present in BSV, in the presence of optimal amounts of the cofactor glutathione, (reduced form). Specifically, the inhibitory properties of the extract were determined by a cascade bioassay technique [Collier et al., Brit. J. Pharmac., 58, 193-199 (1976)] involving measurement of prostaglandin activity against response.
The ability of the purified mammalian serum extract to inhibit the enzymatic conversion of arachidonic acid by prostaglandin synthetase obtained from BSV was determined by bioassay on tissues which are known to be contracted by naturally occurring PGs. Segments of rat or hamster stomach fundus (stomach strip) were obtained as described in Brit. J. Pharmacol. Vol. 5, 173 (1950), Vol. 6, 32 (1953), Vol. 12, 344 (1957), and Vol. 23, 351 (1964). […]
A dose of standard PGE2 is put over the tissues by means of the roller pump and the tissue response measured by recording the tissue contraction. […] Alternately, the protein content of the solution can be determined by known techniques, such as the biuret reaction or Kjeldahl method, and the test value expressed in ng. […]

Inhibition of PG synthesis (in words): demonstrated an ability to inhibit
Substance: haptoglobin obtained from Cohn subfraction IV4 by the above procedure: haptoglobin from Cohn subfraction IV4 by second procedure: ethacridine lactate precipitation and chromatography
